Laboratory results reported in patent publication US8236762B2, “Peptide-cytotoxic conjugates” (IPSEN Pharma S.A.S., priority 2006, dated 2012).
pKi: −log10 of the molar value. Entries after “also recorded” stand apart in the source; their conditions may differ. Numbered stars: 1 amine (or outer) side, 2 acyl side, 3 side chain; on linkers, the order of the positions; unused ones are H or OH. Bridge positions count the residues as written; N and C are the ends. Square brackets hold non-standard residues; d marks the D form. Peptide text beside a SMILES is read from it. * marks the point of attachment. X1 = CC[C@@]1(O*)C(=O)OCc2c1cc1n(c2=O)Cc2cc3ccccc3nc2-1; Tyr(3-I) = N[C@@H](Cc1ccc(O)c(I)c1)C(=O)O; Glutaryl = O=C(CCCC(=O)[*:2])[*:1]; Abu = CC[C@H](N)C(=O)O; AEEA = NCCOCCOCC(=O)O

Assays:
[1] = test system: K562 cells; experiment: In vivo growth assay, K562 human chronic myelogenous leukemia xenograft in nude mice; settings: female athymic nude mice, qwk×3, i.v.; 165.6, 138, 55.2 mg/kg
Description: FIG. 2: Effects of Example 5C against tumor model human chronic myelogenous leukemia K562 in female athymic nude mice.
(§1) In other experiments, animals were implanted with human xenografts derived from NCI-H345 cells (human small cell lung carcinoma; […]), A549 cells (non-small cell lung carcinoma), MDA-MB-231 cells (breast cancer) and K562 cells (human chronic myelogenous leukemia; […]) and then subjected to treatment with the compounds of Formula I or II and the appropriate controls as described herein.

[2] = test system: NCI-H345 cells; experiment: In vivo growth assay, NCI-H345 small cell lung carcinoma xenograft in nude mice; design: species or system human; settings: female athymic nude mice, qwk×3, i.v.; 165.6, 138, 55.2 mg/kg
Description: FIG. 3: Effects of Example 5C against small cell lung carcinoma tumor model H345 SCLC in female athymic nude mice.
as §1

[3] = test system: NCI-H69 cells; experiment: In vivo growth assay, NCI-H69 small cell lung carcinoma xenograft in nude mice; design: species or system human; settings: female athymic nude mice, qwk×3, i.v.
Description: The mice were housed in microisolators on a 12-hour light cycle at 22° C. (72° F.) and 40%-60% humidity.
Mice were implanted subcutaneously in the flank with 5×10^6 cells of NCI-H69 cells along with an equal volume of Matrigel® Matrix (BD Biosciences, San Jose, Calif., U.S.A.), a solubilized basement membrane preparation extracted from EHS mouse sarcoma, a tumor rich in ECM proteins. The tumors were monitored initially twice weekly and then daily as the neoplasms reached the desired size of approximately 100 mm^3, (100 mg). When the small cell lung carcinomas attained the desired size in calculated tumor weight, the animals were pair-matched on Day 1 into various treatment groups. The estimated tumor weight was calculated using the formula:
[formula] where w=width and l=length, both measured in mm, of a small cell lung carcinoma.
Animals with tumors were then subject to either no treatment at all, treatment with a vehicle control (either saline or water), treatment with a camptothecin only control (7.5 mg/kg) or treatment with a compound according to Formula I or II as discussed above. All treatments were administered intravenously.

[4] = molecular target: T1, hSSTR-4 (Homo sapiens, UniProt P31391); experiment: Somatostatin receptor radioligand binding, hSSTR-4 (CHO-K1 membranes); settings: read-out: Ki hSSTR4 ± (SEM)
T1 construct: expressed in transfected cells; host or cells: CHO-K1
T1 sequence (P31391 whole entry): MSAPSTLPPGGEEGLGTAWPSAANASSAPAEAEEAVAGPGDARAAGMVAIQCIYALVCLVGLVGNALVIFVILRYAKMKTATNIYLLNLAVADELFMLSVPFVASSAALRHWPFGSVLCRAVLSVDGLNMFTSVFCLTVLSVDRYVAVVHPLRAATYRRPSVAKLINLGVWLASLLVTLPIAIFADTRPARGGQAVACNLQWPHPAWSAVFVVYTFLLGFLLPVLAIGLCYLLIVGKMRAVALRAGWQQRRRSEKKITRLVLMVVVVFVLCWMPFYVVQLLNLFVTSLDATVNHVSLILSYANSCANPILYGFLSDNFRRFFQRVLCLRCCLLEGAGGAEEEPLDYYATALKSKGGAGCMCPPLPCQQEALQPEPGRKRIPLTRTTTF

[5] = molecular target: T2, hSSTR-2 (Homo sapiens, UniProt P30874); experiment: Somatostatin receptor radioligand binding, hSSTR-2 (CHO-K1 membranes); settings: read-out: Ki hSSTR2 ± (SEM)
T2 construct: expressed in transfected cells; host or cells: CHO-K1
T2 sequence (P30874 whole entry): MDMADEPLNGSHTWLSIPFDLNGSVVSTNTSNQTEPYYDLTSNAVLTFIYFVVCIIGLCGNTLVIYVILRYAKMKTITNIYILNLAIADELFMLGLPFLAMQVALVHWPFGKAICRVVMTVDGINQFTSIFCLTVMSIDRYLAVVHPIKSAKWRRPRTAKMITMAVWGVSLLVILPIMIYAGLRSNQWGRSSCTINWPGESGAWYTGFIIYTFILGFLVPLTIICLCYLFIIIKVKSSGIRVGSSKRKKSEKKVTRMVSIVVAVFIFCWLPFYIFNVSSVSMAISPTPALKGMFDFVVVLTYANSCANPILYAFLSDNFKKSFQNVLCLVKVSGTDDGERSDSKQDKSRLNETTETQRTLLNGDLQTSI
Description: (§3) Membranes for in vitro receptor binding assays were obtained by homogenizing (Polytron setting 6, 15 sec) CHO-K1 cells expressing human somatostatin receptor subtypes hSSTR-1, hSSTR-2, hSSTR-3, hSSTR-4 or hSSTR-5 in ice-cold 50 mM Tris-HCl. The homogenized cells were centrifuged twice at 39,000 g for 10 minutes with an intermediate resuspension in fresh buffer. The final pellets were resuspended in 10 mM Tris-HCl to prepare the cell membrane homogenate for use in the binding assay.
(§4) For the hSSTR-1, hSSTR-3, and hSSTR-4 assays, aliquots of the membrane preparations were incubated for 90 minutes at 25° C. with 0.05 nM [^125I-Tyr11]SRIF-14 in 50 mM HEPES (pH 7.4) buffer containing 0.2% BSA and 5 mM MgCl2. The final assay volume was 0.3 ml. For the hSSTR-2 and hSSTR-5 assays, [^125I]-[4-(2-hydroxyethyl)]-1-piperazinylacetyl-D-Phe-c(Cys-Tyr-D-Trp-Lys-Abu-Cys)-Thr-NH2 (0.05 nM) and [^125I]-D-Phe-c(Cys-Tyr-D-Trp-Lys-Val-Cys)-Thr-NH2 were employed as the radioligands, respectively.
(§5) The cell membrane homogenate was incubated with the radioligands for 90 minutes at 25° C. The incubations were terminated by rapid filtration through GF/C filters pre-soaked in 0.3% polyethylenimine using a Brandel® filtration manifold (Gaithersberg, Md., U.S.A.). Each tube and filter was washed three times with 5-ml aliquots of ice-cold buffer. Specific binding was defined as the total radioligand bound minus that bound in the presence of 1000 nM SRIF-14 (for hSSTR-1, hSSTR-3, hSSTR-4 or hSSTR-5), or 1000 nM DPhe-c(Cys-Tyr-D-Trp-Lys-Abu-Cys)-Thr-NH2 for hSSTR-2.

[6] = molecular target: T3, hSSTR-5 (Homo sapiens, UniProt P35346); experiment: Somatostatin receptor radioligand binding, hSSTR-5 (CHO-K1 membranes); settings: read-out: Ki hSSTR5 ± (SEM)
T3 construct: expressed in transfected cells; host or cells: CHO-K1
T3 sequence (P35346 whole entry): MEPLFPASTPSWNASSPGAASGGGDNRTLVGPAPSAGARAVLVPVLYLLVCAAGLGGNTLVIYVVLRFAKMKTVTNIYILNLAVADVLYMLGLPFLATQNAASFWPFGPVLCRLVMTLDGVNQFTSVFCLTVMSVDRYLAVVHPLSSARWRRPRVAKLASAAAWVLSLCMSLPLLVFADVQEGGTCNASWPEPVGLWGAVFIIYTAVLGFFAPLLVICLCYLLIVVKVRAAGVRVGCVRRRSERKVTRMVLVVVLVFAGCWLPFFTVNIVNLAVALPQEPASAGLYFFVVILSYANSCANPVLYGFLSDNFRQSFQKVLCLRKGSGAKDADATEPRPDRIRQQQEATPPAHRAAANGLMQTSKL
Description: as §3, §4, §5

[7] = molecular target: T4, hSSTR-1 (Homo sapiens, UniProt P30872); experiment: Somatostatin receptor radioligand binding, hSSTR-1 (CHO-K1 membranes); settings: read-out: Ki hSSTR1 ± (SEM)
T4 construct: expressed in transfected cells; host or cells: CHO-K1
T4 sequence (P30872 whole entry): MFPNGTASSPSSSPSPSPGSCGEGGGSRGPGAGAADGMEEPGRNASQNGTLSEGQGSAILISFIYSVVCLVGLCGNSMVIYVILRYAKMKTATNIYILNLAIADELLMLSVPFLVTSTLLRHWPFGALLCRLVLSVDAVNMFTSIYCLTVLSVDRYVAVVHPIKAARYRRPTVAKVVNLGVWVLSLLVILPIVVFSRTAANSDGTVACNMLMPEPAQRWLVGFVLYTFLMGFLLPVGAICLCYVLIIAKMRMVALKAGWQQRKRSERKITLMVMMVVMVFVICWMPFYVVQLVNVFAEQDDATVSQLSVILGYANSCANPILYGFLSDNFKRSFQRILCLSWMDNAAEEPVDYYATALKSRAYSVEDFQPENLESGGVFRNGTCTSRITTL

[8] = molecular target: T5, hSSTR-3 (Homo sapiens, UniProt P32745); experiment: Somatostatin receptor radioligand binding, hSSTR-3 (CHO-K1 membranes); settings: read-out: Ki hSSTR3 ± (SEM)
T5 construct: expressed in transfected cells; host or cells: CHO-K1
T5 sequence (P32745 whole entry): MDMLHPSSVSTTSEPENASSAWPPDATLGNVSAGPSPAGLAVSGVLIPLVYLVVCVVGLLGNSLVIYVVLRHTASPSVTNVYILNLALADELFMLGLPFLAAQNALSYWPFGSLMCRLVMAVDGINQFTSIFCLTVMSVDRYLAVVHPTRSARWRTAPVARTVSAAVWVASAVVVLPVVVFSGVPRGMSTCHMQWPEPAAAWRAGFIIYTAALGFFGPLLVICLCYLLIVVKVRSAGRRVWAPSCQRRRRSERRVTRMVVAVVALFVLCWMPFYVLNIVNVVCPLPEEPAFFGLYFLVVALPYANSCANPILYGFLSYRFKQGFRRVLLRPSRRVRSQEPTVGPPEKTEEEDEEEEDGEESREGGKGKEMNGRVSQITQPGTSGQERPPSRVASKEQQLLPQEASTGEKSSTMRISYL
Description: as §3, §4, §5

[9] = Half-life determination in mouse plasma (LC-MS); type: in vitro ADME; settings: 37° C.
In short: (§2)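 Compound samples of about 50–500 μg/ml were added to 450 μl human or mouse plasma and incubated at 37 °C. Aliquots taken from 0 to 48 h were precipitated with acetonitrile. Supernatants were analysed by LC-MS (positive-mode ESI, C8 column, acetic acid water/acetonitrile gradient).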

[10] = Half-life determination in human plasma (LC-MS); type: in vitro ADME; settings: 37° C.
In short: as §2

Compound | tumor growth in vivo, K562 human chronic myelogenous leukemia xenograft [1] | tumor growth in vivo, H345 small cell lung carcinoma xenograft [2] | tumor growth in vivo, NCI-H69 xenograft (FIG. 1) [3] | pKi [4] | pKi [5] | pKi [6] | pKi [7] | pKi [8] | half-life [9] [h] | half-life [10] [h]
Camptothecin-rvD-Asp-Suc-(Doc)4-Aepa-D-Phe-c(Cys-Tyr-D-Trp-Lys-Abu-Cys)-Thr-NH2 [Example 5C] | Suppression of tumor growth; also recorded: suppressed growth | Suppression of tumor growth; also recorded: suppressed growth | Suppression of tumor growth |  |  |  |  |  |  | 
CC[C@@H]1NC(=O)[C@H](CCCCN)NC(=O)[C@@H](Cc2c[nH]c3ccccc23)NC(=O)[C@H](Cc2ccc(O)c(I)c2)NC(=O)[C@@H](NC(=O)[C@@H](Cc2ccc(O)cc2)NC(=O)[C@@H](Cc2ccc(O)cc2)NC(=O)[C@H](CCCCN)NC(=O)COCCOCCNC(=O)COCCOCCNC(=O)COCCOCCNC(=O)COCCOCCNC(=O)CCCC(=O)NCC(=O)O[C@]2(CC)C(=O)OCc3c2cc2n(c3=O)Cc3cc4ccccc4nc3-2)CSSC[C@@H](C(=O)N[C@H](C(N)=O)[C@@H](C)O)NC1=O [Example 3, Camptothecin-rvGly-Glut-(Doc)4-Lys-D-Tyr-D-Tyr-c(Cys-3-(I)Tyr-D-Trp-Lys-Abu-Cys)-Thr-NH2] ({X1-Gly-Glutaryl-AEEA-AEEA-AEEA-AEEA}-K[dY][dY]C[Tyr(3-I)][dW]K[Abu]CT-NH2; disulfide 4-9) |  |  |  | ≤ 6.00 | 10.00 | 8.41 | ≤ 6.00 | 7.03 | 5.7 | 3.8
Camptothecin-rvD-Asp-Suc-(Doc)4-Aepa-D-Phe-c(Cys-Tyr-D-Trp-Lys-Abu-Cys)-Thr-NH2 Camptothecin-rvAsp-Suc-(Doc)4-Aepa-D-Phe-c(Cys-Tyr-D-Trp-Lys-Abu-Cys)-Thr-NH2 [Example 5B] |  |  | Suppression of tumor growth |  |  |  |  |  |  | 
